Results published in patent US7683078B2, “Arylsulfonamide derivatives as C-Jun-N-Terminal Kinases (JNK's) inhibitors” (Laboratoires Serono S.A., priority 2001, dated 2010).
pIC50: −log10 of the molar value.

Target: JNK3 (Homo sapiens, UniProt P53779)
Assay: JNK3 in vitro assay (33P incorporation into c-jun, SPA)
Type: biochemical
Conditions: recombinant pre-activated GST-JNK3, biotinylated GST-c-Jun, 2 μM 33γ-ATP, 120 min R.T.; read-out: inhibition (IC50) with regard to JNK3
Method: The phosphorylation of c-jun by JNK2 or JNK3 can be followed by monitoring the incorporation of ^33P into c-jun following the protocol below. The inhibitory activity of the compounds according to formula I, towards c-jun phosphorylation through JNK, is determined by calculating phosphorylation activity in the presence or absence of compounds according to formula I.
JNK3 and/or -2 assays are performed in 96 well MTT plates: incubation of 0.5 μg of recombinant, pre-activated GST-JNK3 or GST-JNK2 with 1 μg of recombinant, biotinylated GST-c-Jun and 2 μM ^33γ-ATP (2 nCi/μl), in the presence or absence of compounds according to formula I and in a reaction volume of 50 μl containing 50 mM Tris-HCl, pH 8.0; 10 mM MgCl2; 1 mM Dithiothreitol, and 100 μM Na3VO4. The incubation is performed for 120 min. at R.T and stopped upon addition of 200 μl of a solution containing 250 μg of Streptavidine-coated SPA beads (Amersham, Inc.)*, 5 mM EDTA, 0.1% Triton-X-100 and 50 μM ATP, in phosphate saline buffer. After incubation for 60 minutes at RT, beads are sedimented by centrifugation at 1500×g for 5 minutes, resuspended in 200 μl of PBS containing 5 mM EDTA, 0.1% Triton X-100 and 50 μM ATP and the radioactivity measured in a scintillation β counter, following sedimentation of the beads as described above. […]

Chain of JNK3 (P53779 whole entry, species assumed): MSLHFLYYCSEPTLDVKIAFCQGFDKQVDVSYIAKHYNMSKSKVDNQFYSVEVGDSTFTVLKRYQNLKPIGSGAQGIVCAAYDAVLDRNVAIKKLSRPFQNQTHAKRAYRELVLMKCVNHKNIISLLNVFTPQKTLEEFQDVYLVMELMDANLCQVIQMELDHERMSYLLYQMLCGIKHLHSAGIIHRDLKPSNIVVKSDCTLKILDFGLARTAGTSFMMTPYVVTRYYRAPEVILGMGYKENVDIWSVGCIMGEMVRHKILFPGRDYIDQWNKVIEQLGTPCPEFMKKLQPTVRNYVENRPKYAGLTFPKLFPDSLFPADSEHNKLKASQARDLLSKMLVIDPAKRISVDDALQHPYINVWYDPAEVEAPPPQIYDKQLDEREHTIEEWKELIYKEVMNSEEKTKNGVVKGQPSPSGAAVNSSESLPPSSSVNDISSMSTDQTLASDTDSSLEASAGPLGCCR

Question: How did the pIC50 turn out when `CN(CCCNCc1ccc(C(F)(F)F)cc1)S(=O)(=O)c1ccc(CNC(=O)c2ccc(Cl)cc2)s1` [Compound 13, 4-Chloro-N-(5-{methyl-[3-(4-trifluoromethyl-benzylamino)-propyl]-sulfamoyl}-thiophen-2-ylmethyl)-benzamide] was run?
Answer: 6.73

Question: How did the pIC50 turn out when `CCCCCCNCCCN(C)S(=O)(=O)c1ccc(CNC(=O)c2ccc(Cl)cc2)s1` [Compound 14, 4-Chloro-N-{5-[(3-hexylamino-propyl)-methyl-sulfamoyl]-thiophen-2-ylmethyl}-benzamide] was run?
Answer: 6.74
